# According to patent publication US10471154B2, “Spirocyclic indolone polyethylene glycol carbonate compound, composition, preparation method and use thereof” (priority 2016, dated 2019):
# Marks after values point to notes of the source that are not given here.
# Assays:
# [1] = test system: SJSA-1 xenografted tumor; assay: Inhibitory effect on the growth of SJSA-1 xenografted tumor in nude mice; assay type: in vivo; settings: for Tumor volumes X ± SD (mm^3), End: End (21 days after inoculation), doxorubicin 3.0 mg/kg i.p. x6, rac-SIP 30.0 mg/kg gavage x9, SIP-PEG compounds 30.0 mg/kg i.p. x9, rac-SIP-MPEG-2000 50.0 mg/kg i.p. x9; for Tumor volumes X ± SD (mm^3), Start: Start of administration (8 days after inoculation); for Weights of Tumor X ± SD: tumor peeled off 21 days after inoculation; for Weights of Tumor X ± SD / Inhibition rate (%) on the basis of tumor volume / Inhibition rate (%) on the basis of tumor weight: doses and routes as in E5; for Inhibition rate (%) on the basis of tumor volume / Inhibition rate (%) on the basis of tumor weight: vs saline control; for Inhibition rate (%) on the basis of tumor volume: End; for inhibitory effect on tumor growth compared with PEG-free rac-SIP given by gastrointestinal administration: administered by injection, 30.0 mg/kg (rac-SIP-MPEG-2000 50.0 mg/kg)
# Experimental: 72 Female Balb/c/nu nude mice (weighting 15-19 g) were provided by Beijing Huafukang BioScience Co., Inc. Certificate No.: SOCK (Beijing) 2014-0004.
# (§1) Doxorubicin: prepared in sterile physiological saline at a concentration of 0.3 mg/ml; the administration dosage was 3.0 mg/kg; and the administration volume was 10 ml/kg.
# (§2) rac-SIP: prepared in a solvent consisting of 4% DMA, 30% PEG400, and 66% (by volume) sterile distilled water to a solution with a concentration of 1.5 mg/ml; the administration dosage was 30.0 mg/kg, and the administration volume was 20 ml/kg.
# (§3) rac-SIP-PEG-2: prepared in a solvent consisting of polyoxyethylene castor oil:95% ethanol:sterile physiological saline (1.5:1.5:7 by volume) to drug solutions with concentrations of 1.5 mg/ml and 3.0 mg/ml. The administration dosages were 15.0 mg/kg and 30.0 mg/kg. The administration volume was 10 ml/kg.
# (§4) rac-SIP-PEG-3: prepared in sterile physiological saline to a solution with a concentration of 3.0 mg/ml. The administration dose was 30.0 mg/kg. The administration volume was 10 ml/kg.
# (§5) chiral-R-SIP-PEG-3: prepared in sterile physiological saline to a solution with a concentration of 3.0 mg/ml. The administration dose was 30.0 mg/kg. The administration volume was 10 ml/kg.
# (§6) rac-SIP-PEG-7: prepared in sterile physiological saline to a solution with a concentration of 3.0 mg/ml. The administration dose was 30.0 mg/kg. The administration volume was 10 ml/kg.
# (§7) The administration dose was 50.0 mg/kg. The administration volume was 10 ml/kg.
# Doxorubicin: at a dose of 3.0 mg/kg, administered intraperitoneally, once every other day, for a total of 6 times.
# rac-SIP: at a dose of 30.0 mg/kg, administered by gavage, once a day, 6 times a week, for a total of 9 times.
# rac-SIP-PEG-2: at a dose of 30.0 mg/kg, administered intraperitoneally, once a day, 6 times a week, for a total of 9 times.
# rac-SIP-PEG-3: at a dose of 30.0 mg/kg, administered intraperitoneally, once a day, 6 times a week, for a total of 9 times.
# chiral-R-SIP-PEG-3: at a dose of 30.0 mg/kg, administered intraperitoneally, once a day, 6 times a week, for a total of 9 times.
# rac-SIP-PEG-7: at a dose of 30.0 mg/kg, administered intraperitoneally, once a day, 6 times a week, for a total of 9 times.
# (§8) Tumor cells (SJSA-1) were harvested under aseptic conditions, and were adjusted to a cell density of 1×10^7 cells/ml with sterile physiological saline. 0.2 ml was inoculated under the skin of the axilla of nude mice, and the tumor was grown to have a diameter of 1 cm. The tumor was removed under aseptic conditions and cut into tumor masses with a size of 2.0 mm×2.0 mm, and evenly inoculated under the skin of the axilla of the nude mice. When the tumor volume reached about 250 mm^3 (8 days after inoculation), the animals were administered in groups with 9 mice in each group, and the animals with poor tumor growth were excluded. The control group used physiological saline as a control. […] Body weight was weighted 3 times a week, and the length a and the width b of the tumor were measured with a vernier caliper, and the volume of the tumor was calculated according to the formula V=a×b^2/2, where a is the length of the tumor and b is the width of the tumor. 21 Days after the inoculation, the nude mice were dislocated and photographed, and then the tumor was peeled off, weighed and photographed. RTV (relative tumor volume) and tumor inhibition rate were calculated. At the same time, the peripheral blood of nude mice was taken to count blood cells.
# (§9) The data were processed by EXCEL software and expressed by Mean±SD, and the inter-group analysis was statistically processed using t test.
# [2] = Body weights of SJSA-1 implanted nude mice (side effects); assay type: in vivo; settings: for Body Weights X ± SD (g), End: End (21 days after inoculation), doxorubicin 3.0 mg/kg i.p. x6, rac-SIP 30.0 mg/kg gavage x9, SIP-PEG compounds 30.0 mg/kg i.p. x9, rac-SIP-MPEG-2000 50.0 mg/kg i.p. x9; for body weight decreased, compared with the solvent control group: SIP-PEG compounds 30.0 mg/kg i.p. (MPEG-2000 50.0 mg/kg), SIP oral 30.0 mg/kg; for Body Weights X ± SD (g), Start: Start of administration, dose per group 3.0/30.0/50.0 mg/kg as in Table 1
# Experimental: as §8, §9
# [3] = physchem; settings: 25 °C, water, thermodynamic from solid
# [4] = Drug preparation: dissolving in physiological saline; assay type: physicochemical; settings: 3.0 mg/ml (Example 14: 5.0 mg/ml) in sterile physiological saline
# Experimental: as §1, §2, §3, §4, §5, §6, §7
Compound,"Tumor volumes X ± SD (mm^3), End [1]","Tumor volumes X ± SD (mm^3), Start [1] [mm^3]",Weights of Tumor X ± SD [1] [g],Inhibition rate (%) on the basis of tumor volume [1] [%],Inhibition rate (%) on the basis of tumor weight [1] [%],"Body Weights X ± SD (g), End [2] [g]","body weight decreased, compared with the solvent control group [2]","Body Weights X ± SD (g), Start [2] [g]",solubility at 24 h [3] [µg/mL],inhibitory effect on tumor growth compared with PEG-free rac-SIP given by gastrointestinal administration [1],dissolving in physiological saline for administration [4]
"COc1cc(C(N)=O)ccc1NC(=O)[C@@H]1N[C@@H](CC(C)(C)C)C2(C(=O)Nc3cc(Cl)ccc32)[C@H]1c1cccc(Cl)c1F (mixture of isomers) [rac-SIP, rac-spiroindolinone pyrrolidinecarboxamide, reference compound]",1273.7 ± 506.9*** mm^3,249.4 ± 59.5,1.37 ± 0.55,54.89,49.69,14.1 ± 1.6,about 18%,17.1 ± 0.8,< 100,,
"COCCOCCOC(=O)OC(C)OC(=O)c1ccc(NC(=O)[C@@H]2N[C@@H](CC(C)(C)C)[C@@]3(C(=O)Nc4cc(Cl)ccc43)[C@H]2c2cccc(Cl)c2F)c(OC)c1 (mixture of isomers) [rac-SIP-PEG-2, Rac-9-oxo-2,5,8,10-tetraoxadodecan-11-yl-4-((2′S,3R,4′S,5′R)-6-chloro-4′-(3-chloro-2-fluorophenyl)-2′-neopentyl-2-oxospiro[indoline-3,3′-pyrrolidine]-5′-carboxamido)-3-methoxybenzoate]",1260.8 ± 597.6*** mm^3,242.6 ± 49.9,1.35 ± 0.64,55.36,50.55,15.4 ± 1.0,about 9.4%,17.0 ± 1.1,> 400,slightly better inhibitory effect,
"COCCOCCOCCOC(=O)OC(C)OC(=O)c1ccc(NC(=O)[C@@H]2N[C@@H](CC(C)(C)C)[C@@]3(C(=O)Nc4cc(Cl)ccc43)[C@H]2c2cccc(Cl)c2F)c(OC)c1 (mixture of isomers) [rac-SIP-PEG-3, Rac-12-oxo-2,5,8,11,13-pentaoxapentadecan-14-yl-4-((2′S,3R,4′S,5′R)-6-chloro-4′-(3-chloro-2-fluorophenyl)-2′-neopentyl-2-oxospiro[indoline-3,3′-pyrrolidine]-5′-carboxamido)-3-methoxybenzoate]",260.1 ± 219.3*** mm^3,246.4 ± 23.6,0.20 ± 0.20,90.79,92.86,15.9 ± 1.8,about 7.5%,17.2 ± 0.7,> 3000,stronger inhibitory effect,could be directly dissolved in physiological saline
"COCCOCCOCCOCCOCCOCCOCCOC(=O)OC(C)OC(=O)c1ccc(NC(=O)[C@@H]2N[C@@H](CC(C)(C)C)[C@@]3(C(=O)Nc4cc(Cl)ccc43)[C@H]2c2cccc(Cl)c2F)c(OC)c1 (mixture of isomers) [rac-SIP-PEG-7, Rac-24-oxo-2,5,8,11,14,17,20,23,25-nonoxaheptacosan-26-yl-4-((2′S,3R,4′S,5′R)-6-chloro-4′-(3-chloro-2-fluorophenyl)-2′-neopentyl-2-oxospiro[indoline-3,3′-pyrrolidine]-5′-carboxamido)-3-methoxybenzoate]",93.2 ± 65.2*** mm^3,247.6 ± 57.4,0.08 ± 0.14,96.38,97.06,16.1 ± 1.6,about 6.4%,17.1 ± 0.7,30000,stronger inhibitory effect,could be directly dissolved in physiological saline
"COc1cc(C(=O)O)ccc1NC(=O)[C@@H]1N[C@@H](CC(C)(C)C)[C@@]2(C(=O)Nc3cc(Cl)ccc32)[C@H]1c1cccc(Cl)c1F (racemic) [rac-SIP-acid, rac-4-((2′S,3′R,4′S,5′R)-6-chloro-4′-(3-chloro-2-fluorophenyl)-2′-neopentyl-2-oxospiro[indoline-3,3′-pyrrolidine]-5′-carboxamido)-3-methoxybenzoic acid, reference compound]",,,,,,,,,< 100,,
"COc1cccc2c1C(=O)c1c(O)c3c(c(O)c1C2=O)C[C@@](O)(C(=O)CO)C[C@@H]3O[C@H]1C[C@H](N)[C@H](O)[C@H](C)O1 [Doxorubicin ADM, Doxorubicin, reference compound]",1401.1 ± 658.2*** mm^3,241.1 ± 46.6,1.41 ± 0.66,50.38,48.27,13.7 ± 0.7,,17.4 ± 0.7,,,
"Rac-4-((2′S,3′R,4′S,5′R)-6-chloro-4′-(3-chloro-2-fluorophenyl)-2′-neopentyl-2-oxospiro[indoline-3,3′-pyrrolidine]-5′-carboxamido)-3-methoxybenzoic acid methoxy polyethylene glycol 2000 carbonate [rac-SIP-MPEG-2000]",102.5 ± 58.5*** mm^3,251.3 ± 39.8,0.09 ± 0.09,96.02,96.70,16.3 ± 1.5,about 5.2%,17.4 ± 1.0,,stronger inhibitory effect,could be directly dissolved in physiological saline
